Experimental data from patent US20060252798A1, “Metal ion chelators and therapeutic use thereof” (priority 2003, published 2006).
Read-outs that look alike come from different tables or passages of the source.

Key:
intracellular ROS = test: Intracellular ROS assay (DCF-DA, flow cytometry), M109 cells; format: cell-based, mouse; conditions: 50 μM, 10 min, positive control
Protocol: Intracellular ROS generation was assessed using the cell-permeable dye 2′,7′-dichlorofluorescein-diacetate (DCF-DA) (Sigma). DCF-DA readily diffuses into cells and becomes highly fluorescent when oxidised by O2^•−, H2O2, or OH^−.^29 Cellular fluorescence intensity is directly proportional to the level of intracellular ROS.^29 M109 cells (1×10^5 cells/well) were incubated with or without 1 μM Dp44mT for 0-48 h or 50 μM H2O2 (positive control) for 10 min at 37° C. The cells were then incubated with DCF-DA (5 μM) for 20 min at 37° C., washed twice, and detached from the culture plates. The fluorescence of oxidised DCF in cells was measured using flow cytometry.^29)
To test whether induction of h-cytc release from the mitochondrion (FIG. 15A) and the imbalance of Bcl-2/Bax expression (FIG. 15B) was due to the presence of ROS, intracellular ROS were measured by flow cytometry using the DCFH-DA probe which becomes fluorescent when oxidised by O2^•−, H2O2, or OH^−.^29 Incubation of M109 cells with Dp44mT (1 μM) increased the levels of oxidised probe as a function of time. After 2 h, a 25±10% increase in oxidised DCFH-DA fluorescence was found compared to the 0 h time point, and this increased to 486±96% after 48 h (FIG. 15C). For comparison, a 10 min incubation with the positive control, H2O2 (50 μM), increased fluorescence to 1312±46% of the 0 h time point (FIG. 15C)

[1] = tested on: iron regulatory proteins (IRPs); test: IRP-RNA-binding activity, gel-retardation assay, SK-N-MC cells; format: cell-based, human; conditions: DFO 100 μM, FAC 100 μg/ml, other chelators 25 μM, 20 h (FIG. 8)
Protocol: The IRP-RNA-binding activity was then assessed by the gel-retardation assay. Aliquots of cell lysate containing 2 μg of protein were incubated with 0.1 ng (approximately 1×10^5 cpm) of ^32P-labelled riboprobe for 30 min at room temperature. Using this protocol the level of RNA added was saturating. Unprotected probe was degraded by incubation with 1 U of RNAse T1 for 10 min at room temperature. Heparin (5 mg/ml) was then added for another 10 min to exclude non-specific binding. The IRE-protein complexes were analyzed on 6% non-denaturing polyacrylamide gels. In parallel experiments, samples were treated with ferricyanide (FeCN, 5 mM) and 0.5% β-mercaptoethanol (β-ME), prior to addition of the IRE probe. This procedure results in the conversion of IRP1, whether spontaneously active or not, into an active IRE-binding form.^22

MRC-5 fibroblasts = test: MTT cellular proliferation assay, MRC-5 fibroblasts; format: cell-based, human
Protocol: (§1) The final concentration of the compounds was 0.39-50 μM. […] […] After this incubation, 0.01 mL of MTT was added to each well and the plates incubated for 2 h at 37° C. The cells were then solubilised by adding 0.1 mL of 10% SDS-50% isobutanol in 0.01 M HCl and the plates then read at 570 nm on a scanning multiwell spectrophotometer (Titertek Multiscan; Beckman Instruments Inc, California). MTT colour formation was directly proportional to the number of viable cells.
The MRC-5 cell type is a normal human lung fibroblast cell strain that is mortal and senesces after a number of passages in vitro. The SK-N-MC neuroepithelioma cell type is immortal.
(§2) Dp2mT served as a negative control.

H69AR lung cancer = test: MTT cellular proliferation assay, H69AR; format: cell-based; conditions: 0-50 μM, 72 h, 1 experiment
Protocol: as §1
(§3) At the end of the incubation period, cell density was determined by the MTT assay (described above).

[2] = tested on: SK-N-MC neuroepithelioma cells; test: 3H-thymidine incorporation by SK-N-MC cells; format: cell-based, human; conditions: 20 h incubation then 2 h label; Mean ± SD, 4 experiments
Protocol: (§4) After a 20 h incubation of the SK-N-MC cells with a selection of analogues, ^3H-thymidine, ^3H-leucine, or ^3H-uridine (1 μCi/ml) was added for 2 h at 37° C. The cells were detached from the 96 well plate using 1 mM EDTA in Ca(II)/Mg(II)-free PBS and collected and washed using a cell harvester (Tomtec Harvester 96, Linbrook, Queensland, Australia). Radioactivity was measured on a P-scintillation counter (LKB Wallace, Turku, Finland).

[3] = tested on: SK-N-MC neuroepithelioma cells; test: 59Fe uptake from 59Fe-transferrin by SK-N-MC neuroepithelioma cells; format: cell-based, human; conditions: 0.5-50 μM, 3 h; PCTH internal control (FIG. 5B)
Protocol: The cells were then placed on ice and washed four times with ice-cold Hank's balanced salt solution (BSS) to remove non-specifically bound ^59Fe-Tf. Cells were then incubated with the general protease, pronase (1 mg/ml), for 30 min at 4° C. to remove membrane-bound ^59Fe and Tf.
PCTH was used as an internal control.

NCI H2452 mesothelioma = test: MTT cellular proliferation assay, NCI H2452; format: cell-based; conditions: 0-50 μM, 72 h, 3 experiments
Protocol: as §1, §3

[4] = tested on: SK-N-MC neuroepithelioma cells; test: MTT cellular proliferation assay, SK-N-MC; format: cell-based, human
Protocol: […] […] After this incubation, 0.01 mL of MTT was added to each well and the plates incubated for 2 h at 37° C. The cells were then solubilised by adding 0.1 mL of 10% SDS-50% isobutanol in 0.01 M HCl and the plates then read at 570 nm on a scanning multiwell spectrophotometer (Titertek Multiscan; Beckman Instruments Inc, California). MTT colour formation was directly proportional to the number of viable cells.
The effect of the compounds on the proliferation of SK-N-MC neuroepithelioma cells was examined using the MTT assay (described above).
as §2

[5] = tested on: SK-N-MC neuroepithelioma cells; test: 3H-leucine incorporation by SK-N-MC cells; format: cell-based, human; conditions: 20 h incubation then 2 h label; Mean ± SD, 4 experiments
Protocol: as §4

GADD45 and WAF1 mRNA = test: Northern blot of WAF1 and GADD45 mRNA expression in SK-N-MC cells; format: cell-based, human; conditions: DFO 100 μM, other chelators 25 μM, 20 h at 37° C. (FIG. 7)
Protocol: FIG. 7. […] Northern blotting was performed using standard procedures (see Example 6).
Northern blot analysis was performed by isolating total RNA using the Total RNA Isolation Reagent (Advanced Biotechnologies Ltd, Surrey, United Kingdom). The membranes were hybridised with probes specific for human WAF1, GADD45, and β-actin. The WAF1 probe consisted of a 1 kb fragment from pSXV (ATCC; Cat. No. 79928). The GADD45 probe consisted of a 760 bp fragment from human GADD45 cDNA cloned into pHu145B2 (kindly supplied by Dr. Albert Fornace, National Cancer Institute, NIH, Maryland). The β-actin probe consisted of a 1.4 kb fragment from human β-actin cDNA cloned into pBluescript SK− (ATCC; Cat. No. 37997).

[6] = tested on: SK-N-MC neuroepithelioma cells; test: 3H-uridine incorporation by SK-N-MC cells; format: cell-based, human; conditions: 20 h incubation then 2 h label; Mean ± SD, 3 experiments
Protocol: as §4

[7] = tested on: SK-N-MC neuroepithelioma cells; test: 59Fe mobilization from prelabelled SK-N-MC neuroepithelioma cells; format: cell-based, human
Protocol: The effect of chelators on ^59Fe release from prelabelled cells was studied using standard procedures.^18 Cells were prelabelled with ^59Fe-transferrin (0.75 μM) for 3 h at 37° C. […] The overlying medium was then removed and placed into γ-counting tubes. The cells were removed from the petri dishes in 1 ml of BSS using a plastic spatula and transferred to a separate set of γ-counting tubes.
The ability of the compounds to mobilise ^59Fe from SK-N-MC neuroepithelioma cells was assessed after a 3 h labelling period with ^59Fe-Tf (0.75 μM) at 37° C. […]
DFO and 311 were used as internal standards.

IMR-32 Neuroblastoma = test: MTT cellular proliferation assay, IMR-32; format: cell-based; conditions: 0-50 μM, 72 h, 1 experiment
Protocol: as §1, §3

DU 145 prostate cancer = test: MTT cellular proliferation assay, DU 145; format: cell-based; conditions: 0-50 μM, 72 h, 2 experiments
Protocol: as §1, §3

Ndrg1 = Ndrg1 expression in MCF-7 cells (Western blotting); format: cell-based, human; conditions: 25 μM, 24 h, MCF-7 cells (FIG. 16)
Protocol: FIG. 16. […] The expression of Ndrg1 and β-actin protein levels were assessed by Western blotting.
MCF-7 cells were incubated for 24 h with a range of metal ion chelators. […] Dp2mT was used as a negative control, […]

SK-Mel-28 melanoma cells = test: MTT cellular proliferation assay, SK-Mel-28; format: cell-based, human; conditions: Table 3, 72 h, mean ± SD
Protocol: as §1, §2
(§5) Dp2mT served as a negative control as the methyl group at the 2-position hinders Fe-chelation.

[8] = tested on: MCF-7 breast cancer cells; test: MTT cellular proliferation assay, MCF-7; format: cell-based, human; conditions: values given in Example 8; read-out: IC50, anti-proliferative activity in MCF-7 cells
Protocol: […] […] […] After this incubation, 0.01 mL of MTT was added to each well and the plates incubated for 2 h at 37° C. The cells were then solubilised by adding 0.1 mL of 10% SDS-50% isobutanol in 0.01 M HCl and the plates then read at 570 nm on a scanning multiwell spectrophotometer (Titertek Multiscan; Beckman Instruments Inc, California). MTT colour formation was directly proportional to the number of viable cells.
as §2, §5

HEP G2 Hepatoma = test: MTT cellular proliferation assay, HEP G2; format: cell-based; conditions: 0-50 μM, 72 h, 1 experiment
Protocol: as §1, §3

M109 carcinoma cells = test: 59Fe uptake from 59Fe-Tf by M109 cells; format: cell-based, mouse; conditions: 1 μM
Protocol: The ability of the compound Dp44mT to inhibit the growth of M109 lung carcinoma cells in mice was assessed. Studies were performed using M109 carcinoma cells in culture to determine the effect of Dp44mT on mobilising ^59Fe from these cells (FIG. 11C) and inhibiting ^59Fe uptake from ^59Fe-Tf (FIG. 11D). As internal controls, cells were incubated with DFO and 311. The effect of compound concentration on increasing ^59Fe mobilisation from M109 cells was examined by labelling cells with ^59Fe-Tf (0.75 μM) for 3 h at 37° C. followed by washing and reincubation with the respective compounds (0.2-25 μM) for 3 h at 37° C. (FIG. 11C). […] In contrast, 311 increased cellular ^59Fe release from 8±1% (control medium) to […] at 5 μM (FIG. 11C). For Dp44mT ^59Fe release plateaued at 2 μM, resulting in the efflux of 48±2% of ^59Fe (FIG. 11C).
At 1 μM, 311 reduced ^59Fe uptake to 40±4% of the control. […] Dp44mT had similar activity to 311 up to a concentration of 5 μM, where it reduced ^59Fe uptake to 30±1% of the control (FIG. 11D).

[9] = Table 2, MTT assay, 90 h incubation, Mean ± SD, 4 experiments, read-out: IC50 Values of Chelators

Compound	IRP-RNA binding activity [1]	IC50 (H69AR lung cancer) [µM]	3H-Thymidine Incorporation [2] [% Control]	IC50 (NCI H2452 mesothelioma) [µM]	IC50 [4, 9] [µM]	3H-Leucine Incorporation [5] [% Control]	GADD45 and WAF1 mRNA expression (GADD45 and WAF1 mRNA)	3H-Uridine Incorporation [6] [% Control]	IC50 (IMR-32 Neuroblastoma) [µM]	IC50 (DU 145 prostate cancer) [µM]	other results
OO [H2O2]											fluorescence (intracellular ROS): 1312±46 % of the 0 h time point
ferric ammonium citrate [FAC]	decreased										
di-2-pyridylketone 2-thiophenecarboxaldehyde hydrazone [PKTH]		0.78	0.04 ± 0.01	0.73	3 ± 1	19 ± 8	pronounced effect	5 ± 1	0.3	1.43	IC50 (MRC-5 fibroblasts; Example 4c, FIG. 6, read-out: IC50 values in fibroblasts): 16 µM; prevention of 59Fe uptake as a function of concentration [3]: higher efficacy than the control PCTH; 59Fe mobilisation as a function of concentration ([7]; 0.5-50 μM, 3 h, PCTH internal control (FIG. 5A)): more effective than PCTH; cellular 59Fe released ([7]; chelator 1 μM, 3 h reincubation at 37° C. (FIG. 5A)): 26%
O=C(NN=Cc1c(O)ccc2ccccc12)c1ccncc1 [compound 311, 2-hydroxy-1-naphthylaldehyde isonicotinoyl hydrazone]	increase	0.97	0.1 ± 0.1	0.47	3 ± 2	2 ± 1	up-regulation	5 ± 2	0.3	1.94	IC50 (MRC-5 fibroblasts; Table 3, normal cells, 72 h, MTT, read-out: IC50 MRC-5 fibroblasts): > 25 µM; up-regulation of Ndrg1 (Ndrg1): markedly increased; IC50 ([4]; Table 3, 0-25 μM, 72 h, MTT, mean ± SD, read-out: IC50 SK-N-MC neuroepithelioma): 0.3 µM; IC50 (SK-Mel-28 melanoma cells): 0.9 ± 0.5 µM; IC50 [8]: 0.6 µM; IC50 (HEP G2 Hepatoma): 1.18 µM; 59Fe uptake (M109 carcinoma cells): 40±4 % of the control
